From patent US10793590B2, “Antifungal compounds” (President and Fellow of Harvard College, priority 2016, dated 2020)
Converted amounts (≈) assume the structure as drawn.

Legend:
[1] = Solubility determination; assay type: physicochemical; conditions: HEPES buffer, aqueous buffer, thermodynamic from solid; 5 mM HEPES pH 7.4, 22° C., UV-vis absorbance
Description: Solubility determination: Solubility for selvamicin and nystatin was measured with minor modifications from a previously reported protocol. 1 Briefly, in microcentrifuge tubes, 20 μL […] HEPES (pH=7.4) was added to 2.5 mg of selvamicin and of nystatin and the resulting suspensions were vortexed vigorously for 30 min at 22° C. The tubes were centrifuged, the resulting supernatants were diluted in HEPES buffer, and concentrations were determined by UV-vis absorbance (306 nm for nystatin and 335 nm for selvamicin).

[2] = tested on: Candida albicans; test: Liquid broth minimum inhibitory concentration; assay type: cell-based; conditions: YPD media, 30° C., OD600 at 14 h, 1% DMSO, read-out: MIC against Candida albicans
Description: (§1) Determination of minimum inhibitory concentration: Fresh DMSO solutions of selvarmicin and nystatin were prepared as serial dilutions and dispensed into clear flat-bottom 96-well plates in four replicates. A starting inoculum of the appropriate test strain in media was added to each well to yield a final concentration of 1% DMSO by volume. The plates were incubated at 30° C. with shaking at 200 rpm. Growth was assayed by OD600 readings taken on a M5 plate reader (Molecular Devices). For E. coli, B. subtilis, and M. luteus, the starting inoculum consisted of an overnight culture in LB diluted into LB media at 10 μL/mL and final OD readings were taken at 22 h. For C. albicans and S. cerevisiae, the starting inoculum consisted of an overnight culture in YPD media diluted to an OD600 of 0.05 in YPD media and final OD readings were taken at 14 h. For T. harzianum and A. fumigatus, the starting inoculum consisted of a stock of concentrated conidia diluted into potato dextrose broth at 2 uL/mL and final OD readings were taken at 22 h. Using Prism (GraphPad), the OD data were normalized and fit to a Gompertz function, from which MIC values were extracted.
(§2) Selvamicin's improved solubility, despite its lack of charged carboxylate and ammonium groups, is probably contributed by its second sugar moiety.

[3] = tested on: C. glabrata; test: Neutropenic mouse disseminated candidiasis model (Example 9); assay type: in vivo; conditions: 20 mg/kg or 80 mg/kg intraperitoneal
Description: (§3) Selvamicin was tested in the neutropenic mouse disseminated candidiasis model. Mice were infected with an inoculum of C. albicans, C. glabrata, and C. auris. After infection, the mice were administered either saline or selvaimicin at 20 mg/kg or 80 mg/kg via an intraperitoneal route. After therapy, the burden of Candida albicans in mouse kidneys was measured by viable plate counts of organ homogenates.

[4] = tested on: C. albicans; test: as above; assay type: in vivo; conditions: 20 mg/kg or 80 mg/kg intraperitoneal
Description: as §3

[5] = tested on: C. auris; test: as above; assay type: in vivo; conditions: 20 mg/kg or 80 mg/kg intraperitoneal
Description: as §3

[6] = Isothermal calorimetry sterol binding assay; conditions: 150 μM polyene, POPC LUVs with 11 mol % ergosterol, 25° C.
Description: Isothermal Calorimetry Sterol Binding Assay:
Large unilamellar vesicle (LUV) preparation: In a glass vial, a 25 mg/mL solution of palmitoyl oleoyl phosphatidylcholine (POPC) in chloroform (0.96 mL, Avanti Polar Lipids) was mixed with a freshly prepared 4 mg/mL solution of the appropriate sterol (ergosterol or cholesterol. Aldrich) in chloroform (0.35 mL). The sterol solution was omitted for preparation of sterol-free POPC LUVs. The resulting solution was evaporated to dryness in vacuo to yield a lipid film, which was placed under high vacuum for at least 5 h. To this film was added 1 mL 5 mM HEPES (pH adjusted to 7.4 with KOH) and the resulting suspension was vortexed for 3 min. This lipid suspension was loaded into a syringe and passed through a 0.1 μM filter (Whatman) 21 times using an Avanti Polar Lipids Mini-Extruder to yield an LUN suspension (32 mM POPC, 11 mol % sterol; assumed no loss during extrusion).
Isothermal calorimetry (ITC) experiments: Solutions of polyene (150 μM selvamicin or nystatin) in 1% DMSO/5 mM HEPES (pH=7.4) were prepared by dilution from a 1.5 mM solution in DMSO. 8 mM POPC LUV suspensions in 1% DMSO/5 mM HEPES (pH=7.4) were prepared by dilution of the above LUV suspensions with HEPES buffer and DMSO. […]

[7] = tested on: Candida albicans K1; test: Neutropenic mouse disseminated candidiasis model (Example 8); assay type: in vivo; conditions: 80 mg/kg single intraperitoneal dose 2 h after infection, read 8 h after therapy
Description: (§4) Selvamicin was tested in the neutropenic mouse disseminated candidiasis model. Briefly, mice were infected with an inoculum of 5.70 log 10 cfu/ml of Candida albicans K1. Two hours after infection, the mice were administered either saline or selvamicin at 80 mg/kg via the intraperitoneal route. Eight hours after therapy, the burden of Candida albicans in mouse kidneys was measured by viable plate counts of organ homogenates.

[8] = tested on: B. subtilis; test: Liquid broth activity testing against bacteria; assay type: cell-based; conditions: LB media, OD at 22 h
Description: as §1, §2

[9] = tested on: E. coli; test: Liquid broth activity testing against bacteria; assay type: cell-based; conditions: LB media, OD at 22 h
Description: as §1, §2

[10] = tested on: M. luteus; test: Liquid broth activity testing against bacteria; assay type: cell-based; conditions: LB media, OD at 22 h
Description: as §1, §2

[11] = Animal toxicity in neutropenic mouse disseminated candidiasis model (Example 8); assay type: in vivo; conditions: 80 mg/kg intraperitoneal, neutropenic mice
Description: as §4

| SMILES | solubility at 30 min [1] | MIC [2] | Efficacy in preventing C. glabrata growth (kidney burden) [3] | Efficacy in preventing C. albicans growth (kidney burden) [4] | Efficacy in preventing C. auris growth (kidney burden) [5] | Binding to ergosterol-containing vesicles (ITC, heats evolved) [6] | Efficacy: burden of Candida albicans in mouse kidneys [7] | Activity against Gram-positive bacteria (B. subtilis) [8] | Activity against Gram-negative bacteria (E. coli) [9] | Activity against Gram-positive bacteria (M. luteus) [10] | Animal toxicity [11] |
| --- | --- | --- | --- | --- | --- | --- | --- | --- | --- | --- | --- |
| C[C@@H]1[C@H](O)[C@@H](C)/C=C/C=C/CC/C=C/C=C/C=C/C=C/[C@H](O[C@H]2O[C@H](C)[C@@H](O)[C@H](N)[C@@H]2O)C[C@@H]2O[C@](O)(C[C@@H](O)[C@H](O)CC[C@@H](O)C[C@@H](O)C[C@@H](O)CC(=O)O[C@H]1C)C[C@H](O)[C@H]2C(=O)O [nystatin A1, reference compound] | 300 µM (≈ 278 µg/mL) | 1 µM (≈ 0.926 µg/mL) |  |  |  |  |  |  |  |  |  |
| CCC1OC(=O)CC[C@@H](O)[C@H](O)C[C@H](O)C[C@]2(O)C[C@H](O)[C@](C)(O)C(CC(O[C@@H]3O[C@H](C)[C@@H](O)[C@H](O)[C@@H]3O)/C=C/C=C/C=C/C=C/C=C/C(C)C(O[C@H]3C[C@@H](O)[C@@H](OC)[C@H](C)O3)C1C)O2 (stereo partly shown) [Selvamicin] | 2300 µM (≈ 2140 µg/mL) | 23 µM (≈ 21.4 µg/mL) | demonstrated efficacy | demonstrated efficacy | demonstrated efficacy | no evidence for binding | demonstrated efficacy in preventing Candida albicans growth | No activity was detected | No activity was detected | No activity was detected | No animal toxicity was apparent |
